Ends that are not written are not given here.
Experiments:
Format in all cases: cell-based
[1] = test system: Bacillus cereus CGMCC 1.1846; experiment: Inhibition-zone assay (CL); conditions: BC CGMCC 1.1846, N.A. = no activity at 0.8 nmol peptide each well
How it was run: (§1)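 Bacteria (~2 × 10^6 cells/ml) were seeded in 0.8% soft-agar medium (LB, Nutrient Broth or GYM) and grown at 30 or 37°C. Three peptide doses were placed in separate 2 mm wells, and inhibition zones were measured after overnight incubation. CL was calculated from the slope and intercept of a d^2 versus log n plot.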

[2] = test system: Escherichia coli TOP10; experiment: Inhibition-zone assay (CL); conditions: EC TOP10, N.A. = no activity at 0.8 nmol peptide each well
How it was run: as §1

[3] = test system: Salmonella enterica ATCC 14028; experiment: Inhibition-zone assay (CL); conditions: SE ATCC 14028, N.A. = no activity at 0.8 nmol peptide each well
How it was run: as §1

[4] = test system: Staphylococcus aureus J708; experiment: Inhibition-zone assay (CL); conditions: SA J708, N.A. = no activity at 0.8 nmol peptide each well
How it was run: as §1

[5] = test system: Staphylococcus aureus J710; experiment: Inhibition-zone assay (CL); conditions: SA J710, N.A. = no activity at 0.8 nmol peptide each well
How it was run: as §1

[6] = test system: Streptomyces griseus NBRC 13350; experiment: Inhibition-zone assay (CL); conditions: SG NBRC 13350, N.A. = no activity at 0.8 nmol peptide each well
How it was run: as §1

[7] = test system: Streptomyces scabiei CGMCC 4.1765; experiment: Inhibition-zone assay (CL); conditions: SSCA CGMCC 4.1765, N.A. = no activity at 0.8 nmol peptide each well
How it was run: as §1

[8] = test system: fresh erythrocytes from the ICR mice; experiment: Hemolytic assay, mouse erythrocytes; conditions: mouse blood cells, 30 min, 37°C, A570
Procedure: Hemolytic activity of peptides against fresh erythrocytes from the ICR mice (Mus musculus), the lizards (Eremias multiocellata) or the pigeons (Columba livia domestica) was assayed according to the standard method (Zhu et al., [2012a]). An aliquot of freshly prepared venom was diluted with 0.9% NaCl to a protein concentration of ~5 mg/mL for use. The percentage of hemolysis is determined as (Apep-Ablank)/(Atot-Ablank) × 100, in which “A” represents absorbance measured at 570 nm. Ablank and Aprep were evaluated in the absence or presence of the venom or peptides. 100% hemolysis (Atot) was obtained in the presence of 1% Triton X-100.

[9] = test system: Alcaligenes faecalis CGMCC 1.1837; experiment: Inhibition-zone assay (CL); conditions: AF CGMCC 1.1837, N.A. = no activity at 0.8 nmol peptide each well
How it was run: as §1

[10] = test system: Pseudomonas aeruginosa 11092304; experiment: Inhibition-zone assay (CL); conditions: PA 11092304, N.A. = no activity at 0.8 nmol peptide each well
How it was run: as §1

[11] = test system: Pseudomonas aeruginosa 11092618; experiment: Inhibition-zone assay (CL); conditions: PA 11092618, N.A. = no activity at 0.8 nmol peptide each well
How it was run: as §1

[12] = test system: Pseudomonas aeruginosa DH; experiment: Inhibition-zone assay (CL); conditions: PA DH, N.A. = no activity at 0.8 nmol peptide each well
How it was run: as §1

[13] = test system: Pseudomonas aeruginosa QT1; experiment: Inhibition-zone assay (CL); conditions: PA QT1, N.A. = no activity at 0.8 nmol peptide each well
How it was run: as §1

[14] = test system: Candida albicans 4257; experiment: Inhibition-zone assay (CL); conditions: CA 4257, 28°C, N.A. = no activity at 0.8 nmol peptide each well
[15] = test system: Candida albicans 4259; experiment: Inhibition-zone assay (CL); conditions: CA 4259, 28°C, N.A. = no activity at 0.8 nmol peptide each well
[16] = test system: Candida albicans 4277; experiment: Inhibition-zone assay (CL); conditions: CA 4277, 28°C, N.A. = no activity at 0.8 nmol peptide each well
[17] = test system: Candida albicans JX1009; experiment: Inhibition-zone assay (CL); conditions: CA JX1009, 28°C, N.A. = no activity at 0.8 nmol peptide each well
[18] = test system: Candida albicans JX1016; experiment: Inhibition-zone assay (CL); conditions: CA JX1016, 28°C, N.A. = no activity at 0.8 nmol peptide each well
[19] = test system: Candida albicans SZ72; experiment: Inhibition-zone assay (CL); conditions: CA SZ72, 28°C, N.A. = no activity at 0.8 nmol peptide each well
[20] = test system: Geotrichum candidum CCTCC AY 93038; experiment: Inhibition-zone assay (CL); conditions: GC CCTCC AY 93038, 28°C, N.A. = no activity at 0.8 nmol peptide each well
[21] = test system: Saccharomyces cerevisiae CCTCC AY 92003; experiment: Inhibition-zone assay (CL); conditions: SC CCTCC AY 92003, 28°C, N.A. = no activity at 0.8 nmol peptide each well
[22] = peptide 3.125 μM, mean ± S.D., triplicate

CC[C@H](C)[C@H](NC(=O)CN)C(=O)NCC(=O)N[C@@H](C)C(=O)N[C@H](C(=O)N[C@@H](CC(C)C)C(=O)N[C@@H](CCCCN)C(=O)N[C@H](C(=O)N[C@@H](CC(C)C)C(=O)N[C@H](C(=O)N[C@H](C(=O)NCC(=O)N[C@@H](CC(C)C)C(=O)N1CCC[C@H]1C(=O)N[C@@H](C)C(=O)N[C@@H](CC(C)C)C(=O)N[C@H](C(=O)N[C@@H](CO)C(=O)N[C@@H](Cc1c[nH]c2ccccc12)C(=O)N[C@H](C(=O)N[C@@H](CCCCN)C(=O)N[C@@H](CCCNC(=N)N)C(=O)N[C@@H](CCCCN)C(=O)N[C@@H](CCCNC(=N)N)C(=O)N[C@@H](CCC(N)=O)C(=O)N[C@@H](CCC(N)=O)C(N)=O)[C@@H](C)CC)[C@@H](C)CC)[C@@H](C)O)[C@@H](C)O)C(C)C)C(C)C [Melittin, reference compound]
Lethal concentration (CL) [1]: 24.74 µM
Lethal concentration (CL) [2]: 13.80 µM
Lethal concentration (CL) [3]: 24.74 µM
Lethal concentration (CL) [4]: 7.80 µM
Lethal concentration (CL) [5]: 8.98 µM
Lethal concentration (CL) [6]: 28.79 µM
Lethal concentration (CL) [7]: 15.93 µM
hemolysis [8, 22]: complete hemolysis

FFGHLFKLATKIIPSFFRRKNQ [MAC-22]
Lethal concentration (CL) [9]: 11.13 µM
Lethal concentration (CL) [10]: 24.82 µM
Lethal concentration (CL) [11]: 19.08 µM
Lethal concentration (CL) [12]: 11.13 µM
Lethal concentration (CL) [13]: 10.98 µM
Lethal concentration (CL) [3]: 16.37 µM

FFGHLFKLATKIIPSLFQ [MUC-18, reference compound]
Lethal concentration (CL) [9]: 18.64 µM
Lethal concentration (CL) [10]: 31.40 µM
Lethal concentration (CL) [11]: 31.40 µM
Lethal concentration (CL) [13]: 18.49 µM
Lethal concentration (CL) [3]: 35.64 µM
Lethal concentration (CL) [4]: 6.86 µM
Lethal concentration (CL) [5]: 5.16 µM
Lethal concentration (CL) [6]: 31.40 µM
Lethal concentration (CL) [7]: 4.45 µM

FFGHLFKLATKIIPSLFQRKKE [MUC-22]
Lethal concentration (CL) [9]: 11.65 µM
Lethal concentration (CL) [10]: 10.02 µM
Lethal concentration (CL) [11]: 6.10 µM
Lethal concentration (CL) [12]: 9.93 µM
Lethal concentration (CL) [13]: 6.10 µM
Lethal concentration (CL) [3]: 14.73 µM

FLFSLIPSAISGLINAFK-NH2 [MeuFSPL-2]
Lethal concentration (CL) [1]: 19.57 µM
Lethal concentration (CL) [14]: 12.72 µM
Lethal concentration (CL) [15]: 12.61 µM
Lethal concentration (CL) [16]: 7.06 µM
Lethal concentration (CL) [17]: 11.58 µM
Lethal concentration (CL) [18]: 23.35 µM
Lethal concentration (CL) [19]: 12.72 µM
Lethal concentration (CL) [2]: 11.58 µM
Lethal concentration (CL) [20]: 24.94 µM
Lethal concentration (CL) [21]: 11.62 µM
Lethal concentration (CL) [4]: 6.21 µM
Lethal concentration (CL) [5]: 7.04 µM
Lethal concentration (CL) [7]: 7.75 µM

FLFSLIPSAISGLISAFK-NH2 [MeuFSPL-1]
Lethal concentration (CL) [1]: 15.33 µM
Lethal concentration (CL) [14]: 14.64 µM
Lethal concentration (CL) [15]: 14.80 µM
Lethal concentration (CL) [16]: 6.25 µM
Lethal concentration (CL) [17]: 15.55 µM
Lethal concentration (CL) [18]: 28.38 µM
Lethal concentration (CL) [19]: 21.82 µM
Lethal concentration (CL) [2]: 9.94 µM
Lethal concentration (CL) [20]: 17.70 µM
Lethal concentration (CL) [21]: 25.00 µM
Lethal concentration (CL) [4]: 10.92 µM
Lethal concentration (CL) [5]: 10.92 µM
Lethal concentration (CL) [6]: 6.81 µM
Lethal concentration (CL) [7]: 1.77 µM
hemolysis [8, 22]: 61 ± 2.5%
hemolysis ([8]; peptide 6.25 μM): ~100%

FLFSLIPSAISGLISAFKGRRKRDLN-NH2 [MarMEL]
Lethal concentration (CL) [1]: 6.69 µM
Lethal concentration (CL) [14]: 6.84 µM
Lethal concentration (CL) [15]: 5.17 µM
Lethal concentration (CL) [16]: 7.04 µM
Lethal concentration (CL) [17]: 6.49 µM
Lethal concentration (CL) [18]: 14.29 µM
Lethal concentration (CL) [19]: 6.70 µM
Lethal concentration (CL) [2]: 4.10 µM
Lethal concentration (CL) [20]: 6.34 µM
Lethal concentration (CL) [10]: 24.95 µM
Lethal concentration (CL) [11]: 8.41 µM
Lethal concentration (CL) [12]: 14.29 µM
Lethal concentration (CL) [13]: 14.29 µM
Lethal concentration (CL) [21]: 7.72 µM
Lethal concentration (CL) [3]: 1.61 µM
Lethal concentration (CL) [4]: 4.69 µM
Lethal concentration (CL) [5]: 8.41 µM
Lethal concentration (CL) [6]: 5.19 µM
Lethal concentration (CL) [7]: 1.56 µM
hemolysis [8, 22]: 66 ± 1.2%
hemolysis ([8]; peptide 6.25 μM): ~100%
